Experimental data reported in patent US20190300882A1, “METHODS OF TREATING NEUROBLASTOMA AND REAGENTS THEREFOR” (GARVAN INSTITUTE OF MEDICAL RESEARCH, priority 2016, published 2019).

Assays:
KELLY cells [1] = test: Primary miRNA mimic screen in combination with low dose IC30 of vincristine or doxorubicin, cell viability; type: cell-based; conditions: for Primary screen Viability (% of control) Kelly DXR: miRNA mimic 25 nM + low dose IC30 doxorubicin; for Primary screen Viability (% of control) Kelly VCR: miRNA mimic 25 nM + low dose IC30 vincristine; for Primary screen Viability (% of control) Kelly Vehicle: miRNA mimic 25 nM + vehicle
Protocol: To systematically identify miRNAs that affect viability and survival of neuroblstoma cells in combination with chemotherapy, a further functional miRNA screen was performed using the 1200 miRNAs from the miRIDIAN miRNA mimic Library (version 16.0; Dharmacon) in combination with low dose IC30 of vincristine or doxorubicin in the two neuroblastoma cancer cell lines. In doing so, the inventors identified miRNAs which result in a lethal phenotype to neuroblastoma cells when administered in combination with low dose IC30 chemotherapy (hereinafter referred to as ‘synthetic lethal’ miRNAs). […] After 24 hours, media was changed using a BioTek 406. […] Luminescence measurements were taken on the Synergy H4 high-throughput multimode microplate reader as described in Example 1. All screens were performed in duplicates.

KELLY cells [2] = test: Secondary validation screen of synthetic lethal miRNAs with low dose IC30 chemotherapy, cell viability; type: cell-based; conditions: for synthetic lethality with chemotherapy: in both Kelly and SKNDZ MYCN-amplified cells, secondary screen; for Secondary screen Viability (% of control) Kelly DXR: miRNA mimic + low dose IC30 doxorubicin; for Secondary screen Viability (% of control) Kelly VCR: miRNA mimic + low dose IC30 vincristine; for Secondary screen Viability (% of control) Kelly Vehicle: miRNA mimic + vehicle
Protocol: (§1) KELLY cells were grown in 10% FCS/RPMI as described in Example 1 and reverse transfected in 384-well plate format with 25 nM of a miRNA from the Dharmacon microRNA mimic Library (version 16.0) using liquid-handling robot Calliper Sciclone ALH3000 according to the conditions described in Table 3. After 24 hours, media was changed using a BioTek 406. Media was again changed after 48 hours and 96 hours using a BioTek 406, and at each of those time points low dose IC30 of vincristine or doxorubicin was added to the culture. 144 hours post-transfection, cell viability was determined using CellTiter-Glo luminescent assay (Promega) at 1:2 dilution. Luminescence measurements were taken on the Synergy H4 high-throughput multimode microplate reader as described in Example 1. All screens were performed in duplicates. The experimental design and timeline for this screen are illustrated in FIGS. 5 and 6, respectively.
(§2) The secondary validation screens were performed in accordance with the genome-wide screens described in Example 1 and Example 2, respectively, with the exception that an additional MYCN-amplified neuroblastoma cell line (SK-N-DZ) was added to each screen.
(§3) Furthermore, five additional non-active miRNAs discovered to have no measureable effect across all treatment groups of the genome-wide screen (‘non-lethal’ miRNAs) were included as negative controls.

[3] = test system: SK-N-DZ MYCN-amplified neuroblastoma cell line; test: Secondary validation screen of synthetic lethal miRNAs with low dose IC30 chemotherapy, additional cell line; type: cell-based; conditions: for Additional cell line Viability (% of control) SKNDZ DXR: miRNA mimic + low dose IC30 doxorubicin; for Additional cell line Viability (% of control) SKNDZ VCR: miRNA mimic + low dose IC30 vincristine; for Additional cell line Viability (% of control) SKNDZ Vehicle: miRNA mimic + vehicle
Protocol: as §1, §2, §3

IMR-90 cells = test: Cell toxicity screen of synthetic lethal miRNAs in non-cancer cells; conditions: for cell viability in non-cancer cells, DXR (% of control): IMR-90, miRNA + low dose IC30 doxorubicin; for cell viability in non-cancer cells, VCR (% of control): IMR-90, miRNA + low dose IC30 vincristine; for cell viability in non-cancer cells, Media (% of control): IMR-90, miRNA alone (media)
Protocol: The cell toxicity screens were performed in IMR-90 cells (normal human fibroblast cells, ATCC).

Row | Substance | Primary screen Viability (% of control) Kelly DXR (KELLY cells [1]) | Primary screen Viability (% of control) Kelly VCR (KELLY cells [1]) | Primary screen Viability (% of control) Kelly Vehicle (KELLY cells [1]) | synthetic lethality with chemotherapy (KELLY cells [2]) | Secondary screen Viability (% of control) Kelly DXR (KELLY cells [2]) | Secondary screen Viability (% of control) Kelly VCR (KELLY cells [2]) | Secondary screen Viability (% of control) Kelly Vehicle (KELLY cells [2]) | Additional cell line Viability (% of control) SKNDZ DXR [3] | Additional cell line Viability (% of control) SKNDZ VCR [3] | Additional cell line Viability (% of control) SKNDZ Vehicle [3] | cell viability in non-cancer cells, DXR (% of control) (IMR-90 cells) | cell viability in non-cancer cells, VCR (% of control) (IMR-90 cells) | cell viability in non-cancer cells, Media (% of control) (IMR-90 cells) | activity in IMR90 cells (IMR-90 cells; even when administered in combination with a chemotherapeutic agent)
1 | hsa-miR-34a-5p (UGGCAGUGUCUUAGCUGGUUGU; chemistry not given here; listed as Homo sapiens) | 70 % of control | 36 % of control | 72 % of control | substantial synthetic lethality | 98 % of control | 35 % of control | 96 % of control | 74 % of control | 57 % of control | 92 % of control | 53 % of control | 63 % of control | 46 % of control | 
2 | hsa-miR-34c-5p (AGGCAGUGUAGUUAGCUGAUUGC; chemistry not given here; listed as Homo sapiens) | 74 % of control | 36 % of control | 72 % of control |  | 80 % of control | 18 % of control | 68 % of control | 34 % of control | 31 % of control | 53 % of control |  |  |  | 
3 | hsa-miR-99b-5p (guide CACCCGUAGAACCGACCUUGCG; chemistry not given here; listed as Homo sapiens) | 28 % of control | 49 % of control | 65 % of control | substantial synthetic lethality | 29 % of control | 44 % of control | 67 % of control | 36 % of control | 61 % of control | 93 % of control | 72 % of control | 75 % of control | 87 % of control | minimal activity
4 | hsa-miR-100-5p (AACCCGUAGAUCCGAACUUGUG; chemistry not given here; listed as Homo sapiens) | 34 % of control | 48 % of control | 68 % of control |  | 43 % of control | 43 % of control | 69 % of control | 48 % of control | 69 % of control | 98 % of control |  |  |  | 
5 | hsa-miR-449a (guide UGGCAGUGUAUUGUUAGCUGGU; chemistry not given here; listed as Homo sapiens) | 62 % of control | 22 % of control | 72 % of control |  | 83 % of control | 35 % of control | 75 % of control | 49 % of control | 44 % of control | 71 % of control |  |  |  | 
6 | hsa-miR-3151 (GGUGGGGCAAUGGGAUCAGGU; chemistry not given here; listed as Homo sapiens) | 40 % of control | 52 % of control | 102 % of control |  | 65 % of control | 47 % of control | 102 % of control | 71 % of control | 72 % of control | 87 % of control |  |  |  | 
7 | hsa-miR-3181 (AUCGGGCCCUCGGCGCCGG; chemistry not given here; listed as Homo sapiens) | 34 % of control | 57 % of control | 94 % of control |  | 61 % of control | 96 % of control | 108 % of control | 38 % of control | 83 % of control | 91 % of control |  |  |  | 
8 | hsa-miR-3646 (AAAAUGAAAUGAGCCCAGCCCA; chemistry not given here; listed as Homo sapiens) | 34 % of control | 55 % of control | 74 % of control |  | 45 % of control | 72 % of control | 70 % of control | 52 % of control | 110 % of control | 101 % of control |  |  |  | 
9 | hsa-miR-3924 (AUAUGUAUAUGUGACUGCUACU; chemistry not given here; listed as Homo sapiens) | 35 % of control | 40 % of control | 72 % of control |  | 46 % of control | 57 % of control | 75 % of control | 41 % of control | 81 % of control | 85 % of control |  |  |  | 
